A short description of data set [1]: Growth inhibition of KB3-1 cells after 72 hrs. The data set is classed as functional, cell-based. To be noted: Homo sapiens, KB 3-1, 72 h.
Data set [2] concerns HUVEC. Put plainly: Selectivity index, ratio of IC50 for Neuro2A cells to IC50 for HUVEC cells. The data set is classed as functional, Homo sapiens.
Data set [3] deals with HUVEC. Kind of data set: Selectivity index, ratio of IC50 for KB3-1 cells to IC50 for HUVEC cells. The data set is classed as functional, Homo sapiens.
Data set [4] concerns K562. Kind of data set: Growth inhibition of K562 cells after 72 hrs. The data set is classed as functional, cell-based. To be noted: Homo sapiens, K562, 72 h.
The nature of data set [5]: Growth inhibition of Neuro2A cells after 72 hrs. The data set is classed as functional, cell-based. To be noted: N2a.
For data set [6], the system named is HUVEC. Kind of data set: Growth inhibition of HUVEC cells after 72 hrs. To be noted: Homo sapiens. The data set is classed as functional, cell-based.
Data set [7] relates to K562. Kind of data set: Selectivity index, ratio of IC50 for K562 cells to IC50 for HUVEC cells. The data set is classed as functional, Homo sapiens.
In data set [8] the target is Mitogen-activated protein kinase 3 (Homo sapiens) (UniProt P27361). Kind of data set: Inhibition of VEGF-induced ERK1 phosphorylation in HUVEC cells after 6 hrs by immunoblotting. The data set is classed as cell-based. (In general: In western blotting, separated proteins are transferred to a membrane and probed.)
Chain of Mitogen-activated protein kinase 3 (Homo sapiens) (P27361 whole entry): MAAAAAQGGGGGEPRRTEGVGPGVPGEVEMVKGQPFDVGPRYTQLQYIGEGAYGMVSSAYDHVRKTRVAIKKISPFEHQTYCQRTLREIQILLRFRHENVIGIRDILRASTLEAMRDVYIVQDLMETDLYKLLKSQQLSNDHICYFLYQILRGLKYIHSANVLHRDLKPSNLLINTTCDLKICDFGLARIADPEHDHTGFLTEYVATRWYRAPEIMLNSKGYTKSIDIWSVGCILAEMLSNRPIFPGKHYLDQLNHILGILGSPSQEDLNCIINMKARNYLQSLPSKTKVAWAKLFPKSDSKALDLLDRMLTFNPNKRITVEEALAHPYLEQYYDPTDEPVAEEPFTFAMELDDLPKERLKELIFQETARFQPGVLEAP
The test system of data set [9] is HUVEC. Kind of data set: Induction of apoptosis assessed as activation of caspase 7 in HUVEC cells at 10 uM after 60 hrs. The data set is classed as functional, Homo sapiens.
For data set [10], the system named is HUVEC. Kind of data set: Inhibition of VEGF-induced cell migration in HUVEC at 1.0 uM after 12 hrs. The data set is classed as functional, cell-based. To be noted: Homo sapiens.
Data set [11] is described as follows: Growth inhibition of HUVEC at 10 uM. To be noted: human, HUVEC cells. The data set is classed as cell-based.
The subject of data set [12] is HUVEC. Kind of data set: Inhibition of VEGF-induced cell migration in HUVEC at 0.3 uM after 12 hrs. The data set is classed as functional, cell-based. To be noted: Homo sapiens.
In data set [13] the test system is HUVEC. Kind of data set: Induction of apoptosis assessed as activation of caspase 3 in HUVEC cells at 1 uM after 48 hrs. The data set is classed as functional, Homo sapiens.
The test system of data set [14] is HUVEC. Put plainly: Induction of apoptosis assessed as activation of caspase 7 in HUVEC cells at 1 uM after 60 hrs. The data set is classed as functional, Homo sapiens.
Data set [15] deals with Mitogen-activated protein kinase 1 (Homo sapiens) (UniProt P28482). Put plainly: Inhibition of VEGF-induced ERK2 phosphorylation in HUVEC cells after 6 hrs by immunoblotting. The data set is classed as cell-based.
Chain of Mitogen-activated protein kinase 1 (Homo sapiens) (P28482 whole entry): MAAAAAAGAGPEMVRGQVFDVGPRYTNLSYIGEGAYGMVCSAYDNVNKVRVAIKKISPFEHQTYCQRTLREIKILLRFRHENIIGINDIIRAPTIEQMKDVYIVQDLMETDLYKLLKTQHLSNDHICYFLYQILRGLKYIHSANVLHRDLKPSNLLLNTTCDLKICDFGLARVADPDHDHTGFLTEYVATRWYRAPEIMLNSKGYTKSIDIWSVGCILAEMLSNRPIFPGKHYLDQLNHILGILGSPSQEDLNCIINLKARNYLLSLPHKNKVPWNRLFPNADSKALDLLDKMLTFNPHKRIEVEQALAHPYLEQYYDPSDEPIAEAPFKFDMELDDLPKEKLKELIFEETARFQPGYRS
Data set [16] deals with KB 3-1. Put plainly: Induction of apoptosis assessed as activation of caspase 7 in KB3-1 cells at 10 uM. The data set is classed as functional, cell-based. To be noted: Homo sapiens.
The subject of data set [17] is HUVEC. Kind of data set: Induction of apoptosis assessed as activation of caspase 3 in HUVEC cells at 1 uM after 60 hrs. The data set is classed as functional, Homo sapiens.
Data set [18] deals with HUVEC. Kind of data set: Induction of apoptosis assessed as activation of caspase 7 in HUVEC cells at 1 uM after 48 hrs. The data set is classed as functional, Homo sapiens.
Data set [19] has as its system KB 3-1. Put plainly: Induction of apoptosis assessed as activation of caspase 3 in KB3-1 cells at 10 uM. To be noted: Homo sapiens. The data set is classed as functional, cell-based.
Data set [20] has as its system HUVEC. Kind of data set: Induction of apoptosis assessed as activation of caspase 3 in HUVEC cells at 10 uM after 48 hrs. The data set is classed as functional, Homo sapiens.
The subject of data set [21] is HUVEC. Put plainly: Induction of apoptosis assessed as activation of caspase 3 in HUVEC cells at 10 uM after 60 hrs. The data set is classed as functional, Homo sapiens.
A short description of data set [22]: Growth inhibition of HUVEC at 1 uM. The data set is classed as cell-based. To be noted: human, HUVEC cells.
In data set [23] the test system is HUVEC. Put plainly: Induction of apoptosis assessed as activation of caspase 7 in HUVEC cells at 10 uM after 48 hrs. The data set is classed as functional, Homo sapiens.

pIC50: −log10 of the molar value. The source made the active and inactive calls. The rule behind the calls is not given here.

Broadly, the pIC50 is −log10 of the IC50, conventionally taken in molar units. High values mean a small IC50, low ones a large IC50. In general, inhibition refers to the drop in the measured response relative to a control, in per cent. Low readings indicate a response near the control, high ones a response far below the control.

Consider `COC(=O)[C@]1(C)[C@@H]2CC[C@]3(C)\C(=C(C)/C=C/C=C(C)\C=C\C=C(C)C)C(=O)C[C@H]3[C@@]2(C)CC[C@H]1OC(C)=O`, for which the pIC50 in data set [1] is 4.74; in the data set on K562 [4], 4.66; in data set [5], 5.33; with HUVEC [6], 7.22. The “Ratio IC50” value was found to be 75 with HUVEC [2], 200 in the data set on HUVEC [3] and 360 with K562 [7].
Consider `COC(=O)[C@@]1(C)[C@H](O)CC[C@@]2(C)[C@H]1CC[C@]1(C)\C(=C(C)/C=C/C=C(C)/C=C/C=C(C)C)C(=O)C[C@@H]21`, for which the pIC50 is 5.31 in data set [1], 5.28 in the data set on K562 [4], 5.23 in data set [5] and 6.72 in the data set with HUVEC [6]. For the same compound, the “Ratio IC50” value came out at 31 in the data set on HUVEC [2], 25 in the data set with HUVEC [3] and 27 in the data set on K562 [7].
As for `COC(=O)[C@]1(C)[C@@H]2CC[C@]3(C)\C(=C(C)/C=C/C=C(C)/C=C/C=O)C(=O)C[C@H]3[C@@]2(C)CC[C@H]1OC(C)=O` [ACETYLJASPIFERAL B METHYL ESTER], the pIC50 in data set [1] was 4.80; with K562 [4], 5.11; in [5], 4.66; in the data set with HUVEC [6], 6.11. Further, the “Ratio IC50” value was 28 in the data set with HUVEC [2], 20 with HUVEC [3] and 10 in the data set on K562 [7].
With `COC(=O)[C@]1(C)[C@@H]2CC[C@]3(C)C(C(C)CCCC(C)CCCC(C)C)C(=O)C[C@H]3[C@@]2(C)CC[C@H]1OC(C)=O` (stereo partly specified), the negative logarithm of the IC50 (pIC50) in data set [1] is below 4.00; in the data set with K562 [4], 4.28; in data set [5] it was 4.10; in the data set with HUVEC [6], below 4.00.
In the case of `COC(=O)[C@]1(C)[C@@H]2CC[C@]3(C)/C(=C(C)/C=C/C=C(C)/C=C/C=C(C)C)C(=O)C[C@H]3[C@@]2(C)CC[C@H]1OC(C)=O`, the pIC50 is 5.51 in data set [1], 5.05 with K562 [4], 5.49 in [5] and 7.19 in the data set with HUVEC [6]. The “Ratio IC50” value was 50 in the data set with HUVEC [2], 48 in the data set with HUVEC [3] and 141 in the data set with K562 [7].
Turning to `COC(=O)[C@]1(C)[C@@H]2CC[C@]3(C)\C(=C(C)/C=C/C=C(C)/C=C/C(O)C(C)(C)O)C(=O)C[C@H]3[C@@]2(C)CC[C@H]1OC(C)=O` (stereo partly specified) [GLOBOSTELLATIC ACID F METHYL ESTER], the pIC50 in data set [1] was 5.07; in the data set on K562 [4] it was 4.92; in [5], 5.30; in the data set with HUVEC [6], 6.01. The results for the “Ratio IC50” value in the data set with HUVEC [2], with HUVEC [3] and with K562 [7] were 5, 9 and 12, respectively.
For `COC(=O)[C@]1(C)[C@@H]2CC[C@]3(C)\C(=C(C)/C=C/C=C(\C)C(/C=C/C(C)(C)O)OC)C(=O)C[C@H]3[C@@]2(C)CC[C@H]1OC(C)=O` (stereo partly specified), the pIC50 was 5.19 in [1], 5.03 in the data set on K562 [4], 5.22 in data set [5] and 5.96 in the data set with HUVEC [6]. The “Ratio IC50” value with HUVEC [2] came to 6; in the data set with HUVEC [3], 6; in the data set on K562 [7] it was 9.
Turning to `COC(=O)[C@]1(C)[C@@H]2CC[C@]3(C)\C(=C(C)/C=C/C=C(C)/C=C/C=C(C)C)C(=O)C[C@H]3[C@@]2(C)CC[C@H]1OC(C)=O`, the pIC50 in data set [1] is 4.85; in the data set on K562 [4], 4.64; in data set [5], 5.12. For the same compound, the “Ratio IC50” value in the data set on HUVEC [2] was determined as 83; in the data set on K562 [7], 256. Moreover, the result (in data set [8]; in data set [15]; in the data set on KB 3-1 [16]; in the data set on KB 3-1 [19]) was inactive. For the same compound, the Fold change in the data set with HUVEC [9] is listed as 45; in the data set with HUVEC [13] it was 5; in the data set with HUVEC [14], 45; in the data set on HUVEC [17], 13; in the data set on HUVEC [18], 17; in the data set with HUVEC [20], 5. Also, the figures for the Fold change in the data set on HUVEC [21] and in the data set with HUVEC [23] were 13 and 17, respectively. For the same compound, the outcome in the data set with HUVEC [10] and in the data set with HUVEC [12] was Active. In data set [11], this compound returned an inhibition at 10 µM above 90%. The same compound came in with an inhibition at 1 µM in data set [22] above 90%.
Consider `COC(=O)[C@]1(C)[C@@H]2CC[C@]3(C)/C(=C(C)/C=C/C=C(C)\C=C\C=C(C)C)C(=O)C[C@H]3[C@@]2(C)CC[C@H]1OC(C)=O`, for which the pIC50 in data set [1] is 5.01; in the data set on K562 [4], 4.66; in data set [5] it was 5.10; with HUVEC [6] it was 6.40. Also, the figures for the “Ratio IC50” value with HUVEC [2], in the data set on HUVEC [3] and in the data set with K562 [7] were 19, 25 and 55, respectively.
For the compound `CC(=O)O[C@@H]1CC[C@@]2(C)[C@@H](CC[C@]3(C)/C(=C(C)/C=C/C=O)C(=O)C[C@@H]23)[C@@]1(C)C(=O)O` [ACETYLJASPIFERAL E], the pIC50 in data set [1] is 4.55; in the data set with K562 [4], 4.49; in [5] it was 4.47; in the data set on HUVEC [6], 5.66. Further, the “Ratio IC50” value was 14 with HUVEC [2], 13 in the data set with HUVEC [3] and 15 in the data set with K562 [7].
